Reference: patent publication US6924145B1, “Selection method” (Danisco A/S, priority 1998, dated 2005)

Key:
[1] = system: tissues of maize; conditions: Roberts et al.; cited from earlier work
[2] = system: sunflower explants; assay: Toxicity of galactose to sunflower apical explants (fresh weight); format: cell-based, Helianthus annuus; conditions: 20 g/l sucrose, 4-5 weeks, above controls on medium devoid of carbohydrate
Experimental: (§1) In order to be useful for selection, the selective component (otherwise called selective agent) should not be able to sustain significant growth and preferably have adverse/toxic effects to the non-transformed cells/tissues. To assess the applicability of galactose selection following transformation, a number of plant species representing a range of different botanical families were tested for sensitivity to galactose, using explants which may be suitable for transformation experiments.
The preparation of apical explants useful for the transformation of sunflower were modified according to Knittel et al. (1994. Plant Cell Rep. 14: 81-86). The seed coats of 2 d old seedlings were gently removed and the cotyledons, the emerging root and the top of the apex were removed. The remaining part of the apex was cut off and divided into two halves and cultivated according to Knittel et al., with 20 g/l sucrose in the medium and galactose according to the experiment. After 4-5 weeks of culture at a 16 h/8 h day/night regime, growth was monitored by determining the fresh weight of the explants (above controls grown on a medium devoid of any carbohydrate source).

[3] = system: oil seed rape hypocotyl explants; assay: Toxicity of galactose to oil seed rape hypocotyl explants (shoot regeneration); format: cell-based, Brassica napus
Experimental: as §1
Hypocotyl explants useful for the transformation of oil seed rape were prepared using a protocol modified after Radke et al. (1988. Theor. Appl. Genet. 78: 161-168). Hypocotyls of 5 d old seedlings were cut into 1 cm segments and transferred to modified MS-medium (Murashige and Skoog 1962. Physiol. Plant. 15: 473-497) containing sucrose and galactose according to the experiment. After 3-4 weeks, shoots were harvested and the explants were transferred to fresh medium of the same composition. This was repeated for 3 more harvests and the total number of regenerated shoots formed on each medium was calculated (see table below).

[4] = system: Petunia; assay: Sensitivity of Petunia to galactose; format: cell-based
Experimental: as §1

[5] = system: tissues of barley; conditions: Roberts et al.; cited from earlier work
[6] = system: pea hypocotyl explants; assay: Toxicity of galactose to pea hypocotyl explants; format: cell-based, Pisum sativum; conditions: after 5 weeks; versus control medium with 20 g/l sucrose (no galactose)
Experimental: as §1, with “experiments. Hypocotyl explants useful for the transformation of pea were prepared by excising the hypocotyl from 7 d old seedlings and transferred to a medium, according to Nielsen er al. (1991. Physiol. Plant 82: 99-102), containing various concentrations of sucrose and galactose. After 5 weeks, the growth of the explants were evaluated.” for “experiments.”

[7] = system: potato explants transformed with pVIC-galT; assay: Selection of transgenic potato shoots (galT vector) on galactose containing media; format: cell-based, Solanum tuberosum; conditions: for No. of transgenic shoots: GUS assay
Experimental: Young leaves useful for the transformation of potato were prepared from leaves of 28 d old in vitro shoot cultures. The leaves were cut off avoiding the meristem at the leaf corner and were cut twice across the midvein. The explants were inoculated for 30 min. with a suspension of Agrobacterium tumefaciens strain EHA101 (OD660=0.5) harbouring the transformation vector described above. After inoculation, the explants were dried carefully on filterpaper and left for co-cultivation for 3 d in dim light.
After co-culture, the explants were transferred to selection medium consisting of MS-medium (Murashige and Skoog 1962. Physiol. Plant. 15: 473-497) supplemented with 500 mg/l carbenicillin and various concentrations of sucrose and galactose. After 3 and 6 weeks, shoots were harvested and transgenicity was evaluated by subjecting the harvested shoots to the assay for β-glucuronidase activity (Jefferson et al. 1987. Plant Mol. Biol. Rep. 5: 387-405), a marker enzyme encoded by a gene placed adjacent the selective gene on the T-DNA of the transformation vector (FIG. 4).

[8] = system: oil seed rape hypocotyl explants inoculated with Agrobacterium tumefaciens EHA101; assay: Selection of transgenic oil seed rape on galactose containing media; format: cell-based, Brassica napus; conditions: galactose 2.5 g/l, sucrose 10 g/l
Experimental: Hypocotyl explants of oil seed rape were prepared using a protocol modified according to Radke et al. (1988. Theor. Appl. Genet. 78: 161-168). Hypocotyls of 5 d old seedlings were cut into 1 cm segments and inoculated with a suspension of Agrobacterium tumefaciens strain EHA101 (OD660=0.1-0.5, prepared according to standard procedures). After inoculation, the explants were dried carefully on filterpaper before co-cultivation.
After co-culture, the explants were transferred to selection medium consisting of modified MS-medium (Murashige and Skoog 1962. Physiol. Plant. 15: 473-497) supplemented with 500 mg/l carbenicillin and various concentrations of sucrose and galactose. After 7-8 weeks, shoots were harvested and transgenicity was evaluated by subjecting the harvested shoots to the assay for β-glucuronidase activity (Jefferson et al. 1987. Plant Mol. Biol. Rep. 5: 387-405), a marker enzyme encoded by a gene placed adjacent the selective gene on the T-DNA of the transformation vector (FIG. 3).

[9] = system: immature wheat embryos; assay: Toxicity of galactose to immature wheat embryos (germination and shoot growth); format: cell-based, Triticum aestivum; conditions: 20 g/l sucrose, relative to control medium (no galactose) = 100
Experimental: In order to be useful for selection, the selective component (otherwise called selective agent) should not be able to sustain significant growth and preferably have adverse/toxic effects to the non-transformed cells/tissues. To assess the applicability of galactose selection following transformation, a number of plant species representing a range of different botanical families were tested for sensitivity to galactose, using explants which may be suitable for transformation experiments. As an example of a monocotyledonous species, wheat was studied. Immature wheat embryos (2-3 weeks old, a total of 161) were carefully removed from the seed and were cultivated on Gamborg B5 medium (Gamborg et al. 1968. Exp. Cell Res. 50: 151-158) supplemented with 9.0 g/l Bacto agar. 20 g/l sucrose and galactose according to the experiment. The embryos were cultivated in the dark for about 10 days where germinated embryos were transferred to fresh medium of the same composition and cultivated in a 16 h/8 h day/night regime for 4-5 weeks. The effect of galactose was evaluated by the number of germinated embryos and by measuring the length of the leaf on these embryos, relative to the control medium (no galactose).

[10] = system: sugar beet cotyledonary explants; assay: Toxicity of galactose to sugar beet cotyledonary explants; format: cell-based, Beta vulgaris; conditions: 20 g/l sucrose and various concentrations galactose; 4-5 weeks
Experimental: In order to be useful for selection, the selective component (otherwise called selective agent) should not be able to sustain significant growth and preferably have adverse/toxic effects to the non-transformed cells/tissues. To assess the applicability of galactose selection following transformation, a number of plant species representing a range of different botanical families were tested for sensitivity to galactose, using explants which may be suitable for transformation experiments. Cotyledonary explants useful for the transformation of sugar beet were prepared by excising the cotyledons from […] seedlings (Joersbo er al. 1998. Mol. Breeding 4: 111-117). The leaves were transferred to modified MS-medium (Murashiee and Skoog 1962. Physiol. Plant. 15: 473-497) containing 20 g/l sucrose and various concentrations galactose.

[11] = system: potato leaf explants; assay: Toxicity of galactose to potato leaf explants (shoot regeneration); format: cell-based, Solanum tuberosum
Experimental: In order to be useful for selection, the selective component (otherwise called selective agent) should not be able to sustain significant growth and preferably have adverse/toxic effects to the non-transformed cells/tissues. To assess the applicability of galactose selection following transformation, a number of plant species representing a range of different botanical families were tested for sensitivity to galactose, using explants which may be suitable for transformation experiments. Young leaves useful for the transformation of potato were prepared from leaves of 28 d old in vitro shoot cultures. The leaves were cut off avoiding the meristem at the leaf corner and were cut twice across the […]. The explants were then put on modified MS-medium (Murashige and Skoog 1962. Physiol. Plant. 15: 473-497) containing various concentrations of sucrose and galactose. After 3 weeks, shoots were harvested and the explants were transferred to fresh medium of the same composition. This was repeated for 2 more harvests and the total number of explants with regenerated shoots formed on each medium was calculated (see table below).

[12] = 2.5 g/l galactose, sucrose 0 g/l
[13] = 2.5 g/l galactose, sucrose 5.0 g/l
[14] = 2.5 g/l galactose, sucrose 10 g/l
[15] = 2.5 g/l galactose, sucrose 20 g/l
[16] = 5.0 g/l galactose, sucrose 0 g/l
[17] = 5.0 g/l galactose, sucrose 5.0 g/l
[18] = 5.0 g/l galactose, sucrose 10 g/l
[19] = 5.0 g/l galactose, sucrose 20 g/l
[20] = galactose 1.25 g/l, sucrose 10 g/l
[21] = galactose 1.25 g/l, sucrose 15 g/l
[22] = galactose 1.25 g/l, sucrose 20 g/l
[23] = galactose 2.5 g/l, sucrose 10 g/l
[24] = galactose 2.5 g/l, sucrose 15 g/l
[25] = galactose 2.5 g/l, sucrose 20 g/l

OC[C@H]1OC(O)[C@H](O)[C@@H](O)[C@H]1O (mixture of isomers) [galactose]
toxicity to tissues of maize [1]: toxic
Fresh weight ([2]; galactose 5.0 g/l): 28 mg/explant
Fresh weight ([2]; galactose 7.5 g/l): 0 mg/explant
Fresh weight ([2]; galactose 10 g/l): 0 mg/explant
Fresh weight ([2]; galactose 15 g/l): 0 mg/explant
total number of regenerated shoots [3, 12]: 0
total number of regenerated shoots [3, 13]: 1
total number of regenerated shoots [3, 14]: 7
total number of regenerated shoots [3, 15]: 26
total number of regenerated shoots [3, 16]: 0
total number of regenerated shoots [3, 17]: 0
total number of regenerated shoots [3, 18]: 3
total number of regenerated shoots [3, 19]: 22
sensitivity to galactose (level of toxicity) [4]: fairly tolerant
ability of galactose to sustain growth ([4]; stated for all tested plant species incl. Petunia): unable to sustain growth
toxicity to tissues of barley [5]: toxic
growth of the explants [6]: unable to sustain any growth
Transformation frequency (%) [7, 20]: 6.0%
No. of transgenic shoots [7, 20]: 3
Transformation frequency (%) [7, 21]: 14.0%
No. of transgenic shoots [7, 21]: 7
Transformation frequency (%) [7, 22]: 6.0%
No. of transgenic shoots [7, 22]: 3
Transformation frequency (%) [7, 23]: 2.0%
No. of transgenic shoots [7, 23]: 1
Transformation frequency (%) [7, 24]: 0%
No. of transgenic shoots [7, 24]: 0
Transformation frequency (%) [7, 25]: 8.0%
No. of transgenic shoots [7, 25]: 4
Transformation frequency (%) [8]: 1.0%
No. of transgenic shoots ([8]; shoots more than 50% β-glucuronidase-positive, 7-8 weeks): 4
Average shoot length ([9]; galactose 2.5 g/l): 89
Germination of embryos ([9]; galactose 2.5 g/l): 43
Average shoot length ([9]; galactose 5.0 g/l): 67
Germination of embryos ([9]; galactose 5.0 g/l): 29
Average shoot length ([9]; galactose 7.5 g/l): 0
Germination of embryos ([9]; galactose 7.5 g/l): 0
Average shoot length ([9]; galactose 10 g/l): 33
Germination of embryos ([9]; galactose 10 g/l): 14
Average shoot length ([9]; galactose 15 g/l): 0
Germination of embryos ([9]; galactose 15 g/l): 0
fresh weight of the explants [10]: significant reduction
number of shoots [10]: significant reduction
total number of explants with regenerated shoots [11, 12]: 1
total number of explants with regenerated shoots [11, 13]: 0
total number of explants with regenerated shoots [11, 14]: 0
total number of explants with regenerated shoots [11, 15]: 7
total number of explants with regenerated shoots [11, 16]: 0
total number of explants with regenerated shoots [11, 17]: 0
total number of explants with regenerated shoots [11, 18]: 0
total number of explants with regenerated shoots [11, 19]: 0
